Laboratory results: US10421722B2, “Sulfur-containing compounds targeting vesicular acetylcholine transporter” (Washington University, priority 2016, dated 2019)

Legend:
[1] = Radiometabolite analysis of NHP arterial plasma; type: in vivo, cynomolgus monkey
Protocol: In order to further understand the kinetic property, radioactive metabolite analysis on HPLC was performed for NHP plasma. (−)-[^18F]9a was chosen for this study because of the high uptake and longer half live of ^18F. Arterial blood samples (1.2-1.5 mL) were collected at 2, 5, 15, 30, and 60 min post-injection of the radiotracer in a heparinized syringe. Aliquots of whole blood (1 mL) were counted in a well counter, then centrifuged to separate red blood cells from plasma. Aliquots of plasma (400 μL) were deproteinated using ice-cold methanol (0.92 mL) and separated by centrifugation. The solvent extract was then injected onto HPLC to identify the percentage of radioactive parent compound versus any radiolabeled metabolites. The HPLC system consisted of an Agilent SB C-18 analytic HPLC column (250 mm×4.6 mm) and an UV detector with wavelength set at 254 nm. The mobile phase was 43% acetonitrile in 0.1 M ammonium formate buffer (pH 4.5), and the flow rate was 1.0 mL/min. The HPLC fractions were collected at 1 min intervals for 16 min; each fraction was counted by a well counter to determine the radioactivity of each collection. The results were corrected for background radiation and physical decay.

[2] = test system: VAChT; settings: cynomolgus monkey, in vivo
Protocol: PET studies were performed on adult male cynomolgus monkeys (6-8 kg) with a MicroPET Focus 220 scanner (Concorde/CTI/Siemens Microsystems, Knoxville, Tenn.). The animal was anesthetized using an intramuscular injection with ketamine (10-20 mg/kg) and glycopyrrolate (0.013-0.017 mg/kg) and then transported to the PET scanner suit. After arrival, the animal was intubated with an endotracheal tube and anesthesia was maintained at 0.75-2.0% isoflurane/oxygen throughout the procedure, and then a percutaneous venous catheter was placed for radiotracer injection. A heated water blanket was used to keep the temperature at 37° C. In each MicroPET scanning session, the head was positioned supine in the adjustable head holder with the brain in the center of the field of view. A 10-min transmission scan was performed to check positioning; once confirmed, a 45 min transmission scan was obtained for attenuation correction. Subsequently, a 2 h dynamic emission scan was acquired after administration of 296-410 MBq of (−)-[^11C]3 or (−)-[^18F]9a via the venous catheter. PET scans were collected from 0-120 min with the following time frames: 3×1 min, 4×2 min, 3×3 min and 20×5 min. PET image reconstructed resolution was <2.0 mm full width half maximum for all 3 dimensions at the center of the field of view. Emission data were corrected using individual attenuation and model-based scatter correction and reconstructed using filtered back projection. The first baseline PET image for each animal acted as the target image with the MPRAGE and subsequent PETs co-registered using automated image registration program AIR. All MPRAGE-based volume of interest (VOI) analyses were accomplished by experienced investigators. For quantitative analyses, three-dimensional ROIs (striatum, cerebellum, frontal cortex, occipital cortex, temporal, midbrain, hippocampus and thalamus) were transformed to the baseline PET space and then overlaid on all reconstructed PET images to obtain time-activity curves. Activity measures were standardized to body weight and dose of radioactivity injected to yield standardized uptake value (SUV).

[3] = biological target: VAChT (Rattus norvegicus (Rat), UniProt Q62666); assay: Ex vivo autoradiography of rat brain; type: in vivo, Sprague-Dawley rat
Protocol: Ex vivo autoradiography was performed on 6-8 month old male Sprague-Dawley rats to confirm the brain distribution of radiolabeled VAChT ligands. Mature male Sprague-Dawley rats were injected with ˜500 μCi of (−)-[^11C]3 or (−)-[^18F]9a via the tail vein under isoflurane/oxygen anesthesia, respectively. The rats were euthanized after 1 h and the brains were quickly removed and placed in a metal brain matrix with slots spaced at 1 mm intervals. The brains were then frozen in the matrix and sectioned into 100 μm coronal slices. Brain slices were carefully removed from the brain matrix razor blades and placed on a clear sheet covered with film and mounting on glass slides. Then, the brain sections were exposed to the film in an imaging cassette for 12 h before they were counted by the FLA7000. Photographic images were obtained using a flatbed scanner. […] There was also moderate uptake in other regions, which may be caused by the moderate binding activity to σ1 receptor. The quantification of autoradiography from entire 30 brain slices indicated the uptake ratio of radioactivity in striatum versus cerebellum reached 1.75 and 1.54, respectively. (FIGS. 6B and 6D)

Sequence of VAChT (Rattus norvegicus (Rat), UniProt Q62666) (Q62666 whole entry): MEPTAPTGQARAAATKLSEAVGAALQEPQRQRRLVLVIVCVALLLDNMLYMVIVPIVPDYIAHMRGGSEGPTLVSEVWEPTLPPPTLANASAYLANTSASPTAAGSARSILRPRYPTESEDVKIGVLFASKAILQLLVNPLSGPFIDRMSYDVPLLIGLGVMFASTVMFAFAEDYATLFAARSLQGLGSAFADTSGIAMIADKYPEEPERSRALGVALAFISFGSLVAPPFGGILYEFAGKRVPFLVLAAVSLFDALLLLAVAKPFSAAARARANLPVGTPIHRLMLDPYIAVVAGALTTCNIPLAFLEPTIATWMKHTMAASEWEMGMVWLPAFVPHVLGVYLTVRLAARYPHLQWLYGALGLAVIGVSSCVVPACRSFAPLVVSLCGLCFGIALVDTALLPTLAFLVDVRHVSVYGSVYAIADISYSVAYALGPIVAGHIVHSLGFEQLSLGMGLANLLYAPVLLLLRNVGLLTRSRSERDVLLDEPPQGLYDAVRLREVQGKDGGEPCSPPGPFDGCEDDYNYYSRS

percentage of parent compound in plasma ([1]; NHP arterial plasma, 2 min post-injection): 69% | percentage of parent compound in plasma ([1]; NHP arterial plasma, 5 min post-injection): 48% | percentage of parent compound in plasma ([1]; NHP arterial plasma, 15 min post-injection): 27% | percentage of parent compound in plasma ([1]; NHP arterial plasma, 30 min post-injection): 21% | percentage of parent compound in plasma ([1]; NHP arterial plasma, 60 min post-injection): 15% | percentage of hydrophilic radioactive metabolite ([1]; NHP arterial plasma, peaked after 30 min): 70% | metabolism in plasma ([1]; NHP plasma, HPLC metabolite analysis): quickly metabolized in the plasma | brain entry [2]: able to enter the NHP brain | time at which striatal SUV reached maximum [2]: 6 min | uptake ratio of radioactivity in striatum versus cerebellum ([3]; 30 slices, 60 min post-injection, tail vein): 1.54
Compound: O=C(c1ccc(SCC[18F])cc1)C1CCN([C@@H]2Cc3ccccc3C[C@H]2O)CC1 (single isomer, unassigned) [(−)-[^18F]9a]
regional brain accumulation [2]: highest accumulation in the striatal region | brain distribution of radioactivity (autoradiograms) ([3]; 1 h after injection): high accumulation in the VAChT enriched striatum
